Usually EC50 stands for the concentration giving half of the maximal effect. One may read the AUC as concentration integrated over time. For orientation: Cmax means the peak of the concentration-time curve. What is called Tmax is the time at which the peak concentration occurs. The term half-life denotes the time needed for the level to fall by half in the phase considered.

This is an account of results in US20050203059A1, “Methods and compositions for treatment of ischemia” (priority 2002, published 2005).

In one data set the test system is rat hippocampi cells. The data set is described as follows: GSK3 inhibitor protection of rat hippocampi cells from glutamate induced damage (Trypan Blue count). It counts as cell-based. On the set-up: Cells Surviving (%) Without Glutamate (control): concentration or dose not given beside the values. The following applies: rat hippocampal neurons, average of 1 to 4 replications; for Cells Surviving (%) With Glutamate: 200 μM glutamic acid for 5 minutes, counted 20 to 24 hours later; for Cells Surviving (%) Without Glutamate (control): not exposed to glutamic acid. As for the experimental part:
Hippocampi were dissected from embryonic day 18-19 rats. The tissue was collected in Hibernate™ media (Gibco BRL) and minced into 1 mm pieces. The tissue was dissociated using the Papain Dissociation System (Worthington Biochemical Corporation). Following isolation the cells were suspended in serum-free media composed of Neurobasal™ (Gibco BRL), 2% B27 supplement (Gibco BRL), L-glutamine and antibiotics. Cells were plated in 12 well plates tissue culture dishes coated with poly-L-lysine at a concentration of 7.5×10^4 cells per well. Following 10-14 days at 37° C. in 5% CO2, the GSK3 inhibitor compounds set forth below were added. Four to eight hours following compound addition, the conditioned media was removed from the cells and the cultures were stored at 37° C. […] The cultures were then either exposed for 5-minutes at room temperature to 200 μM glutamic acid in the same HBSS, or not exposed to glutamic acid as a control. Following exposure, the cultures were rinsed three times with the buffer and then returned to their original conditioned media containing the GSK3 inhibitor compounds. Twenty to 24 hours following glutamic acid exposure, the cultures were rinsed in HBSS and exposed for 10 minutes to Trypan Blue. This dye is taken up by dead cells. The cultures were rinsed then fixed for 30 minutes in 4% paraformaldehyde. The number of live and dead (blue) large neurons are counted (at least 200 cells from each well) by phase contrast microscopy and photographed, and the percentage of surviving cells was determined. […] The results are shown in the following Table 2 as the average of 1 to 4 replications: […]

A further data set has as its system GSK3. The data set is described as follows: Cell-based glycogen synthase assay for GSK3 inhibitory activity (CHO-HIRC cells). The following applies: read-out: EC50 (glycogen synthase activity stimulated to 50% of the maximal level), 20 minutes incubation. As for the experimental part: Likewise, the ability of GSK3 inhibitor compounds to potentiate insulin signaling by activating glycogen synthase can be readily ascertained using a cell-based glycogen synthase activity assay. This assay employs cells that respond to insulin stimulation by increasing glycogen synthase activity, such as the CHO-HIRC cell line, which overexpresses wild-type insulin receptor (˜100,000 binding sites/cell). […] The assay can be carried out by incubating serum-starved CHO-HIRC cells in the presence of various concentrations of compounds of the present invention in the medium, followed by cell lysis at the end of the incubation period. […] The concentration of candidate GSK3 inhibitor that increased glycogen synthase activity to half of its maximal level (i.e., the EC50) can be calculated by fitting a four parameter sigmoidal curve using routine curve fitting methods that are well known to those having ordinary skill in the art.
CHO-HIRC cells are maintained in 10 cm tissue culture plates in Ham's F12 medium/10% dialyzed fetal bovine serum. Cells from a confluent 10 cm plate are harvested and divided into the 6 wells of a 6-well tissue culture plate to a final volume of 2 ml of medium. The cells are left to grow at 37° C. for 24 hours. The cells are then washed three times in Ham's F12 medium containing no fetal bovine serum, and finally the cells are left for a further 24 hours at 37° C. in 2 ml of the serum-free medium.
At the end of this time, 20 μl of compound dissolved in DMSO is added to each well and incubated at 37° C. After 20 minutes the medium is removed and the cells are washed once in PBS at room temperature and then rapidly frozen in the plates in liquid nitrogen. […] Cells are scraped from the plates and frozen in Eppendorf tubes on dry ice. Lysates are then thawed and refrozen on dry ice.
After rethawing, lysates are spun at 14,000 g for 15 minutes. The supernatants are then removed and stored on ice. […] Reactions are incubated at 30° C. for 30 minutes and then spotted onto a 2 cm square 31ET chromatograph paper (Whatman).
Filters are added to 5 ml of liquid scintillant and counted in a liquid scintillation counter. The percentage of the total glycogen synthase that is active in any lysate is expressed as 100× (cpm minus glucose-6-phosphate)/(cpm plus glucose-6-phosphate). Such values are determined in duplicate for 5 different concentrations of compound and for DMSO alone, and the values are then plotted against the logarithm of the concentration. The concentration of compound which stimulates glycogen synthase activity to 50% of the maximal level is determined by fitting a sigmoidal curve to the plotted data. The maximal level is defined as that level to which glycogen synthase activity tends asymtotically as the concentration of test compound increases substantially beyond the EC50.

A short description of data set [1]: Blood brain barrier penetration / plasma drug levels after intravenous dosing in CD rats. Conditions: 10 mg/kg intravenously. It counts as in vivo, rat. As for the experimental part:
GSK3 inhibitor blood brain barrier penetration may generally be measured by administering a GSK3 inhibitor compound formulated in 15% captisol/20 mM sodium citrate to a final dose of 10 mg/kg intravenously through a jugular catheter into 250 g CD rats. At 150 minutes post administration brains from the rats were isolated and fast frozen. GSK3 inhibitor plasma levels in the isolated material were established using standard techniques.

Consider `Nc1nc(NCCNc2ncc(-c3ncc[nH]3)c(-c3ccc(F)cc3Br)n2)ccc1[N+](=O)[O-]` [Compound S], for which, in the data set with rat hippocampi cells, the “Cells Surviving (%) With Glutamate” value was determined as 50% and the “Cells Surviving (%) Without Glutamate (control)” value is listed as 95%. For the same compound, in the data set on GSK3, the EC50 was 0.22 µM.

For the compound `Nc1nc(NCCNc2ncc(NC(=O)NCCN3CCOCC3)c(-c3ccc(Cl)cc3Cl)n2)ccc1[N+](=O)[O-]` [D], in the data set with rat hippocampi cells, the “Cells Surviving (%) With Glutamate” value stood at 60% and the “Cells Surviving (%) Without Glutamate (control)” value amounted to 96%. Also, in the data set with GSK3, the EC50 amounted to 3 µM.

As for `COCCNC(=O)Cn1c(=O)n(C2CCN(C(=O)N3CCc4ccccc4C3)CC2)c2ccccc21` [E], in the data set on rat hippocampi cells, the “Cells Surviving (%) With Glutamate” value is 73% and the “Cells Surviving (%) Without Glutamate (control)” value came to 88%.

For `FC(F)(F)c1ccc(NCCNc2ccc(-c3ncc[nH]3)c(-c3ccc(Cl)cc3Cl)n2)nc1` [F], in the data set on rat hippocampi cells, the “Cells Surviving (%) With Glutamate” value is listed as 51% and the “Cells Surviving (%) Without Glutamate (control)” value is recorded as 96%.

As to `Cc1ccc(-c2nc(NCCNc3ccc([N+](=O)[O-])c(N)n3)ncc2-c2ncc[nH]2)c(Br)c1` [G], the CL in data set [1] was 52 [ml/min]/kg. Moreover, the “Brain (at end of study) drug level” value in data set [1] (brains isolated at 150 minutes post administration) is recorded as “<LOQ”. Moreover, in data set [1] (rat, plasma, iv), the exposure (AUC) is 3.18 µg·h/mL, the peak level (Cmax) was 4.6 µg/mL, the Tmax is about 0 h and the half-life turned out to be 31 min. The Vd in data set [1] (rat, plasma, iv, read-out: Vss) was 2.3 L/kg. Besides, in data set [1] (rat, plasma, iv, time 0 min), the concentration at 0 min was under 0.02 µg/mL. In addition, in data set [1] (rat, plasma, iv, time 7 min), the concentration at 7 min came to 4.05 µg/mL. The compound also showed a concentration at 20 min in data set [1] (rat, plasma, iv, time 20 min) of 3.2 µg/mL. This compound gave a concentration at 40 min in data set [1] (rat, plasma, iv, time 40 min) of 1.33 µg/mL. In data set [1] (rat, plasma, iv, time 70 min), this compound came in with a concentration at 70 min of 0.796 µg/mL. For the same compound, the concentration at 100 min in data set [1] (rat, plasma, iv, time 100 min) amounted to 0.414 µg/mL. In data set [1] (rat, plasma, iv, time 150 min), this compound returned a concentration at 150 min of 0.113 µg/mL. In the data set on rat hippocampi cells, the “Cells Surviving (%) With Glutamate” value is 65% and the “Cells Surviving (%) Without Glutamate (control)” value is 94%. Besides, the EC50 in the data set with GSK3 came to 0.053 µM.

Take `O=[N+]([O-])c1ccc(NCCNc2ccc(-c3ncc[nH]3)c(-c3ccc(Cl)cc3Cl)n2)nc1` [H]: in the data set on rat hippocampi cells, the “Cells Surviving (%) With Glutamate” value was determined as 67% and the “Cells Surviving (%) Without Glutamate (control)” value worked out at 94%. In addition, the concentration for a half-maximal effect (EC50) with GSK3 was 0.121 µM.

Take `O=[N+]([O-])c1ccc(NCCNc2ncc(-c3ncc[nH]3)c(-c3ccc(Cl)cc3Cl)n2)nc1` [J]: in the data set on rat hippocampi cells, the “Cells Surviving (%) With Glutamate” value was 57% and the “Cells Surviving (%) Without Glutamate (control)” value came out at 95%. Further, in the data set with GSK3, the concentration giving a half-maximal response (EC50) came to 0.375 µM.

Consider `Nc1nc(NCCNc2ncc(CO)c(-c3ccc(Cl)cc3Cl)n2)ccc1[N+](=O)[O-]` [K], for which, in the data set on rat hippocampi cells, the “Cells Surviving (%) With Glutamate” value is on record as 73% and the “Cells Surviving (%) Without Glutamate (control)” value came out at 86%. In the data set with GSK3, the EC50 stood at 0.147 µM.

On to `Nc1nc(NCCNc2ncc(-c3ncc[nH]3)c(-c3ccc(Cl)cc3Cl)n2)ccc1[N+](=O)[O-]` [L], for which, in the data set with rat hippocampi cells, the “Cells Surviving (%) With Glutamate” value amounted to 59% and the “Cells Surviving (%) Without Glutamate (control)” value worked out at 90%. Further, the half-maximal effective concentration (EC50) in the data set on GSK3 is 0.257 µM.

Take `Nc1nc(NCCNc2ncc(N3C(=O)CCC3=O)c(-c3ccc(Cl)cc3Cl)n2)ccc1[N+](=O)[O-]` [M]: in the data set on rat hippocampi cells, the “Cells Surviving (%) With Glutamate” value worked out at 61% and the “Cells Surviving (%) Without Glutamate (control)” value is listed as 87%. The EC50 in the data set with GSK3 was found to be 0.085 µM.

With `CN1CCN(c2cnc(NCCNc3ccc([N+](=O)[O-])c(N)n3)nc2-c2ccc(Cl)cc2Cl)CC1` [N], in the data set with rat hippocampi cells, the “Cells Surviving (%) With Glutamate” value came to 67% and the “Cells Surviving (%) Without Glutamate (control)” value is 91%. Further, in the data set with GSK3, the EC50 is 0.0534 µM.

In the case of `Nc1nc(NCCNc2ncc(-n3cc(Cl)ccc3=O)c(-c3ccc(Cl)cc3Cl)n2)ccc1[N+](=O)[O-]` [O], in the data set on rat hippocampi cells, the “Cells Surviving (%) With Glutamate” value is recorded as 61% and the “Cells Surviving (%) Without Glutamate (control)” value came to 94%. Further, the EC50 in the data set on GSK3 turned out to be 0.133 µM.

`CNCC(=O)Nc1cnc(NCCNc2ccc([N+](=O)[O-])c(N)n2)nc1-c1ccc(Cl)cc1Cl` [P]: in the data set on rat hippocampi cells, the “Cells Surviving (%) With Glutamate” value is listed as 55% and the “Cells Surviving (%) Without Glutamate (control)” value turned out to be 91%. Moreover, the EC50 in the data set on GSK3 came to 0.701 µM.

As for `CN(CCNc1ccc([N+](=O)[O-])c(N)n1)c1ncc(-c2ncc[nH]2)c(-c2ccc(Cl)cc2Cl)n1` [Q], in the data set on rat hippocampi cells, the “Cells Surviving (%) With Glutamate” value turned out to be 67% and the “Cells Surviving (%) Without Glutamate (control)” value worked out at 95%. Further, the EC50 in the data set with GSK3 was 0.017 µM.

With `Nc1nc(NCCNc2ncc(-n3ccccc3=O)c(-c3ccc(Cl)cc3Cl)n2)ccc1[N+](=O)[O-]` [R], in the data set on rat hippocampi cells, the “Cells Surviving (%) With Glutamate” value came to 61% and the “Cells Surviving (%) Without Glutamate (control)” value stood at 92%. In addition, the EC50 with GSK3 was determined as 0.014 µM.

With `N#Cc1ccc(-c2nc(NCCNc3ccc([N+](=O)[O-])cn3)ncc2-n2ccnc2)cc1` [T], in the data set on rat hippocampi cells, the “Cells Surviving (%) With Glutamate” value was determined as 50% and the “Cells Surviving (%) Without Glutamate (control)” value was found to be 95%. Also, in the data set on GSK3, the EC50 was 1.28 µM.

Regarding `Nc1nc(NCCNc2ncc(N3CCOCC3)c(-c3ccc(Cl)cc3Cl)n2)ccc1[N+](=O)[O-]` [U], in the data set on rat hippocampi cells, the “Cells Surviving (%) With Glutamate” value amounted to 62% and the “Cells Surviving (%) Without Glutamate (control)” value is listed as 93%. The concentration giving a half-maximal response (EC50) with GSK3 worked out at 0.0735 µM.

For `FC(F)(F)c1ccc(NCCNc2ncc(-c3ncc[nH]3)c(-c3ccc(Cl)cc3Cl)n2)nc1` [V], in the data set with rat hippocampi cells, the “Cells Surviving (%) With Glutamate” value was 49% and the “Cells Surviving (%) Without Glutamate (control)” value came to 94%. In addition, in the data set with GSK3, the 50% effective concentration (EC50) stood at 1.24 µM.

Consider `Nc1nc(NCCNc2ncc(-n3cccn3)c(-c3ccc(Cl)cc3Cl)n2)ccc1[N+](=O)[O-]` [W], for which, in the data set on rat hippocampi cells, the “Cells Surviving (%) With Glutamate” value was determined as 61% and the “Cells Surviving (%) Without Glutamate (control)” value came out at 94%. In the data set on GSK3, the EC50 amounted to 0.0998 µM.

In the case of `Nc1nc(NCCNc2ncc(-c3ncc[nH]3)c(-c3ccc(F)cc3Cl)n2)ccc1[N+](=O)[O-]` [X], in the data set with rat hippocampi cells, the “Cells Surviving (%) With Glutamate” value is 50% and the “Cells Surviving (%) Without Glutamate (control)” value turned out to be 93%. Moreover, the EC50 in the data set with GSK3 amounted to 0.424 µM.

As for `Nc1nc(NCCNc2ncc(-n3ccnc3)c(-c3ccc(Cl)cc3Cl)n2)ccc1[N+](=O)[O-]` [Y], in the data set with rat hippocampi cells, the “Cells Surviving (%) With Glutamate” value is recorded as 61% and the “Cells Surviving (%) Without Glutamate (control)” value was found to be 94%. The EC50 in the data set on GSK3 is 0.075 µM.

On to “IGF1: IGF1, used as a control in the rat hippocampi cell survival test”, for which, in the data set with rat hippocampi cells, the “Cells Surviving (%) With Glutamate” value was 51% and the “Cells Surviving (%) Without Glutamate (control)” value is 93%.
